Experimental data reported in patent US20250280827A1, “An antifungal composition comprising natamycin and at least one insecticide” (priority 2021, published 2025).
Where two headings read alike, the source gives them in different places.

Key:
Botrytis cinerea = assay: Antifungal effect against Botrytis cinerea infection on wounded peel of banana fruits (Colby synergy); type: in vivo; settings: natamycin-insecticide 1:0 ppm
From the text: (§1) wherein X and Y are the observed antifungal activities (in %) of the individual active ingredients x and y, respectively. If the observed antifungal activity (O in %) of the combination exceeds the expected antifungal activity (E in %) of the combination and the synergy factor O/E is thus >1.0, the combined application of the active ingredients leads to a synergistic antifungal effect.
(§2) Application: The broad bean pods were washed under tap water, and were subsequently surface sterilized by placing them in a 0.1% sodium hypochlorite solution for 5 minutes. The pods were then rinsed with tap water and dried. Transparent plastic containers were prepared by placing a piece of absorbing paper in the container and adding 25 ml of water, one container per treatment was used. The pods were cut in two, and two halve pods were incubated per box. The skin of broad bean pods was damaged with a needle, ø 2 mm and to a depth of about 3 mm into the fruit, with—depending on the size of the pod—2 to 4 wounds per half pod. In total, 6 wounds were incubated per treatment, of which 1 was used as a control. A volume of 20 microliter of a natamycin/insecticide composition, as presented herein above, was applied by pipette to each wound. The treatments were then left to air-dry. Once dried, a mycelium plug of Sclerotinia sclerotiorum was placed upside down on each wound, so that the mycelium was in direct contact with the wound. Per treatment 5 wounds were inoculated with the fungus, while the 6th and last wound was used as negative non-inoculated control. After inoculation, the containers were directly closed with a transparent plastic lid.
The infection area was measured 5 days after inoculation.
A few changes were made for the banana experiments: 5 wounds per banana were made, on each wound 40 microliter of treatments was pipetted. The treatments were then left to air-dry. Once dried, 2 microliter of a freshly prepared inoculum was pipetted on four of the wounds. The inoculum consists of […] potato dextrose broth (PDB) medium containing Botrytis cinerea spores at a concentration of 10^6 spores per ml. The fifth wound was used as negative non-inoculated control. Experiment was performed in 4-fold.
Assessment of the infection area was performed 3 days after inoculation. Experiment was performed in 4-fold.
Imidacloprid was formulated as described in Table 2. Assessment of the efficacy was 5 days after inoculation. Experiment was performed in 4-fold.

Fusarium graminerum = type: cell-based; settings: 6 days after inoculation
From the text: (§3) The Colby equation (Colby, 1967. Weeds 15:20-22) calculates the expected antifungal activity (E in %) of a combination comprising more than one active ingredients:
as §1
Agar medium was prepared by mixing in a 100 ml Duran bottle 3.9 g of potato dextrose agar (PDA) from Carl-Roth (Carl-Roth GmbH+Co. KG, Karlsruhe, Germany) with 100 ml deionized water and autoclaving the Duran bottle at 120° C. for 15 minutes. After autoclaving, the solution was cooled by putting it in a 48° C. oven for about two hours. Afterward the semi-liquid PDA solution was carefully mixed with natamycin and/or insecticide dosages as specified in Table 5 showing the interaction results on petri dishes. The medium in the Duran bottle was divided over 5 petri dishes (90×15 mm), 20 ml per petri dish by using 25 ml serological pipets (ROTILABO®; Carl-Roth). Each natamycin and/or insecticide treatment was performed in fivefold.
Fungal spore suspensions were prepared by drenching a fully grown petri dish with sterile water. The fungus was scraped off and filtered through a Miracloth (pore size: 22-25 μm) (Merck KGaA, Darmstadt, Germany; catalogue number: 475855). The number of spores were counted with a hemocytometer and fungal suspension was adjusted to 10^6 spores per ml. Afterward, 5 μl of prepared spore suspension was pipetted on the center of the agar plate. The plates were incubated at 25° C. Measurement of the fungal growth was done using callipers at different time points. Assessment of the infection area was 6 days after inoculation.
The insecticide levels and the period after which the assessments were made are presented as specified for the different insecticides are presented in Table 5 below. Synergistic calculation was done using the Colby equation. Experiment was performed in 5-fold.
The experiments were performed as described in Example 3. The product KARATE ZEON® of company Syngenta containing the active ingredient lambda-cyhalothrin belonging to IRAC Group 3 was tested. Assessment of the infection area was 6 days after inoculation. Experiment was performed in 5-fold.

Sclerotinia sclerotiorum = assay: Antifungal effect against Sclerotinia sclerotiorum infection on wounded skin of broad bean pods (rot area, Colby synergy); type: in vivo; settings: natamycin-insecticide 15-0 ppm
From the text: as §3, §1
• 1) Control (without natamycin and lambda-cyhalothrin) • 2) Natamycin at a level of 15 ppm • 3) Lambda-cyhalothrin (in the product KARATE ZEON® of Syngenta) at a levels of 0.15 ppm, 0.6 ppm, 3 ppm and 15 ppm • 4) Natamycin at a level of 15 ppm combined with lambda-cyhalothrin at levels of 0.15 ppm, 0.6 ppm, 3 ppm or 15 ppm.
Used pathogen: Sclerotinia sclerotiorum.
as §2
All pods were kept at room temperature (20° C.). Wounds of the pods were checked after 30 h of incubation.
Replicates: All treatments for the broad bean pod experiment were performed on two individual pod halves resulting in 5 wounds per treatment, while a sixth wound served as control.
The experiments were performed as described in Example 1.
The experiments were performed as described in Example 1. Assessment of the infection area was 23 h after inoculation. Experiment was performed in 5-fold.
The experiments were performed as described in Example 1. Thiamethoxam belongs to IRAC Group 4. Assessment of the infection area was 31 hours after inoculation. Experiment was performed in 5-fold.
The experiments were performed as described in Example 1. The product SPECTRE® of company (Adama) containing the active ingredient chlorfenapyr belonging to IRAC Group 13 was tested. Assessment of the infection area was 23 hours after inoculation. Experiment was performed in 5-fold.

[1] = 3 days after inoculation, Table 14A
[2] = 3 days after inoculation, Table 14B
[3] = 5 days after inoculation, Table 12A
[4] = 5 days after inoculation, Table 12B
[5] = 5 days after inoculation, Table 18A
[6] = 5 days after inoculation, Table 18B
[7] = natamycin-insecticide 0.5-0 ppm, Table 5
[8] = natamycin-insecticide 1-0 ppm, Table 10
[9] = 23 h after inoculation, Table 4
[10] = 23 h after inoculation, Table 7
[11] = 23 hours after inoculation, Table 9
[12] = 30 h after inoculation, Table 3
[13] = 31 hours after inoculation, Table 8

Which results are given for `C[C@@H]1C/C=C/C=C/C=C/C=C/[C@H](O[C@@H]2O[C@H](C)[C@@H](O)[C@H](N)[C@@H]2O)C[C@@H]2O[C@](O)(C[C@@H](O)C[C@H]3O[C@@H]3/C=C/C(=O)O1)C[C@H](O)[C@H]2C(=O)O` [natamycin]?
Avg infected area (Botrytis cinerea; [1]): 9.2 mm2; Observed antifungal activity (Botrytis cinerea; [1]): 18.8%; Avg infected area (Botrytis cinerea; [2]): 5.5 mm2; Observed antifungal activity (Botrytis cinerea; [2]): 43.9%; Avg infected area (Botrytis cinerea; [3]): 52.6 mm2; Observed antifungal activity (Botrytis cinerea; [3]): 18.0%; Avg infected area (Botrytis cinerea; [4]): 84.7 mm2; Observed antifungal activity (Botrytis cinerea; [4]): 14.3%; Avg infected area (Botrytis cinerea; [5]): 30.7 mm2; Observed antifungal activity (Botrytis cinerea; [5]): 37.6%; Avg infected area (Botrytis cinerea; [6]): 25.9 mm2; Observed antifungal activity (Botrytis cinerea; [6]): 11.6%; Avg infected area (Fusarium graminerum; [7]): 1054.4 mm2; Observed antifungal activity (Fusarium graminerum; [7]): 7.2%; Avg infected area (Fusarium graminerum; [8]): 1107.7 mm2; Observed antifungal activity (Fusarium graminerum; [8]): 69.4%; Avg infected area (Sclerotinia sclerotiorum; [9]): 104.2 mm2; Observed antifungal activity (Sclerotinia sclerotiorum; [9]): 33.5%; Avg infected area (Sclerotinia sclerotiorum; [10]): 99.9 mm2; Observed antifungal activity (Sclerotinia sclerotiorum; [10]): 26.9%; Avg infected area (Sclerotinia sclerotiorum; [11]): 66.2 mm2; Observed antifungal activity (Sclerotinia sclerotiorum; [11]): 41.8%; Avg infected area (Sclerotinia sclerotiorum; [12]): 278.54 mm^2; Observed antifungal activity (Sclerotinia sclerotiorum; [12]): 11.4%; Avg infected area (Sclerotinia sclerotiorum; [13]): 172.7 mm2; Observed antifungal activity (Sclerotinia sclerotiorum; [13]): 33.1%
